# Laboratory results as given in patent publication US10927155B2, “Dual inhibitory action peptidomimetic inhibitor for IL-33 and IL-1beta” (GEORGE MASON UNIVERSITY, priority 2015, dated 2021).
# Bridge positions count the residues as written; N and C are the ends. Ends that are not written are not given here.
# Tested on: IL-1β/IL-1R1 dependent signaling
# Assay: HEK-Blue IL-33/IL-1β reporter cells (SEAP) stimulated with IL-1β
# Assay type: cell-based
# Conditions: FIG. 15; for IL-1β/IL-1R1 dependent signaling (NF-κB and AP-1): HEK Blue reporter cells stimulated with IL-1
# Text: HEK-Blue™ IL-33/IL-1β cells were purchased from InvivoGen. These cells were transfected with a reporter gene, secreted embryonic alkaline phosphatase (SEAP), under the control of the IFN-β minimal promoter fused to five NF-κB and five AP-1 binding sites. In the presence of bioactive IL1β and/or IL33, HEK-Blue cells activate the NF-κB and AP-1 pathways triggering the production of SEAP. SEAP activity in cell supernatant is quantified using a colorimetric enzyme assay (QUANTI-Blue™, InvivoGen).
# HEK Blue IL-33/IL-1β Reporter Cells. HEK-Blue™ IL-33/IL-1β Cells were purchased from InvivoGen. These cells were generated by transfection with a reporter gene, secreted embryonic alkaline phosphatase (SEAP), under the control of the IFN-β minimal promoter fused to five NF-κB and five AP-1 binding sites. In the presence of bioactive IL-1β and/or IL-33, HEK-Blue cells activated the NF-κB and AP-1 pathways triggering the production of SEAP. SEAP activity in cell supernatant was quantified using a colorimetric enzyme assay (QUANTI-Blue™, InvivoGen). HEK Blue cells were grown in DMEM, 4.5 g/l glucose, 2 mM L-Glutamine, 10% (v/v) heat-inactivated fetal bovine serum (30 min at 56° C.). After two passages, cells were exposed to selective medium (DMEM, 4.5 g/l glucose, 2 mM L-Glutamine, 10% heat-inactivated FBS (v/v) with of blasticidin (30 μg/ml), hygromycin B ([…]), and Zeocin™ ([…])). Cells were then plate in 96 well plates (10,000 cell per well) and stimulated with IL-1β (1 ng) and IL-33 (5 ng) in presence or absence of inhibitors.
Substance,IL-1β/IL-1R1 dependent signaling (NF-κB and AP-1),signaling activity of cytokine specificity controls (cytokine used instead of IL-1 as stimulus)
TINESCSHSRTEDETRTQCLS [Cycl],inhibit IL-1β/IL-1R1 dependent signaling,–
TINESISHSRTEDETRTQILS (Synthetic construct Arg286),inhibit IL-1β/IL-1R1 dependent signaling,–
"TINQSCSHSRTQNQTRTQCLS (disulfide 6-19 (inferred)) [RedAgg_Cycl, Arg286 peptide with glutamine replacements and two cysteines forming a disulfide bridge]",inhibit IL-1β/IL-1R1 dependent signaling,–
TINQSISHSRTQNQTRTQILS (Synthetic construct RedAgg) [Arg286 peptide with glutamic acid replaced by glutamine to reduce aggregation],inhibit IL-1β/IL-1R1 dependent signaling,–
TNFα [reference compound],–,no significant signaling activity
